# Tests used:
# [1] = Solubility (saturation capacity) of the active substance in silicone adhesives; format: physicochemical; details: for saturation capacity in silicone adhesives: silicone adhesive without solubility-increasing additive
# Description: (§1) The transdermal therapeutic system according to this invention, of the kind mentioned at the beginning and developed in accordance with the above, is essentially characterized by a matrix on the basis of an acrylate-based or silicone-based non-aqueous polymer adhesive system having a solubility for the free D2-agonist base (−)-5,6,7,8-tetrahydro-6-[propyl-[2-(2-thienyl)ethyl]amino]-1-naphthalenol of >5% (w/w), which matrix is substantially free of inorganic silicate particulates. The solubility is determined at ambient temperature.
# This is sufficient to dissolve 10 mg active substance in a 20 cm^2 large patch having a coat weight of the matrix of 50 g/m^2. Since with transdermal patch systems one must always assume that only about 50% of the active substance employed will be available during the period of application, given a daily dose in the range of 1-10 mg of the active substance a plaster size of between 2 and 40 cm^2 can be expected to be sufficient to achieve therapeutic plasma levels.
# [2] = Permeation studies utilizing Franz diffusion cells and human epidermis; format: in vitro ADME; details: skin, due to hydrophilic properties
# Description: The finished plasters were used in permeation studies utilizing Franz diffusion cells and human epidermis. It will be seen that all plasters are capable of systemically providing a sufficient amount of active substance through the skin. […] It will also be seen that the silicone adhesive-based plasters, although having a considerably lower active substance content, deliver approximately the same quantity of active substance via the skin as the systems based on polyacrylate adhesives.
# [3] = Solubility of the active substance in polyacrylate adhesives; format: physicochemical; details: polyacrylate adhesive matrix; ambient temperature
# Description: as §1
# In systems wherein the active substance is only partially dissolved the concentration of the dissolved active substance is equal to the saturation concentration and thus has the maximum thermodynamic activity under these conditions. In general, it is, above all, the kind and quantity of the free functional groups in the adhesive which are important for the dissolving capacity of the polyacrylate adhesives. […] Such a system must therefore contain the active substance in a concentration of at least 10% (w/w) in order to come sufficiently near to the maximal thermodynamic activity. For the hydrochloride of (−)-5,6,7,8-tetrahydro-6-[propyl-[2-(2-thienyl)ethyl]amino]-1-naphthalenol the solubility in polyacrylates having 5-10% (w/w) is much lower, so that in such systems the active substance is preferably only partially dissolved.
saturation capacity in silicone adhesives [1],passing the barrier of the stratum corneum [2],solubility in polyacrylate adhesives [3],solubility in amine-resistant silicone adhesive ([1]; about 1.5-5% (w/w) of polyvinylpyrrolidone in the adhesive),dissolving capacity for the free base in silicone adhesive matrices ([1]; silicone adhesive admixed with a substance having increased solubility for the active substance (e.g. polyvinylpyrrolidone)),SMILES
practically insoluble,only poorly,5-10 % (w/w),,,"CCCN(CCc1cccs1)C1CCc2c(O)cccc2C1.Cl (single isomer, unassigned; (-)) [(−)-5,6,7,8-tetrahydro-6-[propyl-[2-(2-thienyl)ethyl]amino]-1-naphthalenol hydrochloride]"
about 5 % (w/w),,15-35 % (w/w),10-15 % (w/w),up to 40 % (w/w),"CCCN(CCc1cccs1)C1CCc2c(O)cccc2C1 (single isomer, unassigned; (-)) [(−)-5,6,7,8-tetrahydro-6-[propyl-[2-(2-thienyl)ethyl]amino]-1-naphthalenol]"

# — patent US7413747B2, “Transdermal therapeutic system for treating Parkinsonism” (LTS Lohmann Therapie-Systeme AG, priority 1998, dated 2008)
